Test results published in US11078170B2 (Assembly Biosciences, Inc., priority 2017, dated 2021).

system: HBV viral production from HepAD38 cells; assay: Activity of test compounds on viral production from HepAD38 cells (viral load by qPCR of HBV core sequence in supernatant); format: cell-based; conditions: Hepatitis B virus, 120 h, 5 days incubation, HBV DNA in supernatant by qPCR, top concentration 10 μM, read-out: Viral Load EC50 Activity range
Outline: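 HepAD38 cells, 50,000/well in tetracycline-free 2% FBS medium, treated 5 days at 37° C. with compound from 10 μM top concentration. HBV DNA in supernatant quantified by TaqMan qPCR of core sequence against DNA standards, relative to DMSO wells; CellTiter-Glo viability read in parallel. EC50/CC50 from four-parameter logistic fit.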

SMILES	EC50
CN1[C@H](C(=O)Nc2ccc(F)c(Cl)c2)C[C@H](c2ncc(-c3cccnc3)s2)NS1(=O)=O [HBV-CSU-175-ISO-I, Cis-N-(3-Chloro-4-fluorophenyl)-2-methyl-5-(5-(pyridin-3-yl)thiazol-2-yl)-1,2,6-thiadiazinane-3-carboxamide 1,1-dioxide]	< 1000 nM
CN1[C@@H](C(=O)Nc2ccc(F)c(Cl)c2)C[C@@H](c2ncc(-c3cccnc3)s2)NS1(=O)=O [HBV-CSU-175-ISO-II, Cis-N-(3-Chloro-4-fluorophenyl)-2-methyl-5-(5-(pyridin-3-yl)thiazol-2-yl)-1,2,6-thiadiazinane-3-carboxamide 1,1-dioxide]	< 1000 nM
CN1[C@H](C(=O)Nc2ccc(F)c(Cl)c2)C[C@H](c2ncc(-c3ccccn3)s2)NS1(=O)=O [HBV-CSU-176-ISO-I, Cis-N-(3-chloro-4-fluorophenyl)-2-methyl-5-(5-(pyridin-2-yl)thiazol-2-yl)-1,2,6-thiadiazinane-3-carboxamide 1,1-dioxide]	< 1000 nM
CN1[C@@H](C(=O)Nc2ccc(F)c(Cl)c2)C[C@@H](c2ncc(-c3ccccn3)s2)NS1(=O)=O [HBV-CSU-176-ISO-II, Cis-N-(3-chloro-4-fluorophenyl)-2-methyl-5-(5-(pyridin-2-yl)thiazol-2-yl)-1,2,6-thiadiazinane-3-carboxamide 1,1-dioxide]	> 5000 nM
CN1[C@H](C(=O)Nc2ccc(F)c(Cl)c2)C[C@H](c2ncc(-c3cnn(C)c3)s2)NS1(=O)=O [HBV-CSU-177-ISO-I, Cis-N-(3-Chloro-4-fluorophenyl)-2-methyl-5-(5-(1-methyl-1H-pyrazol-4-yl)thiazol-2-yl)-1,2,6-thiadiazinane-3-carboxamide 1,1-dioxide]	< 1000 nM
CN1[C@H](C(=O)Nc2ccc(F)c(Cl)c2)C[C@H](c2ncc(-c3cccs3)s2)NS1(=O)=O [HBV-CSU-178-ISO-I, Cis-N-(3-Chloro-4-fluorophenyl)-2-methyl-5-(5-(thiophen-2-yl)thiazol-2-yl)-1,2,6-thiadiazinane-3-carboxamide 1,1-dioxide]	< 1000 nM
CN1[C@@H](C(=O)Nc2ccc(F)c(Cl)c2)C[C@@H](c2ncc(-c3cccs3)s2)NS1(=O)=O [HBV-CSU-178-ISO-II, Cis-N-(3-Chloro-4-fluorophenyl)-2-methyl-5-(5-(thiophen-2-yl)thiazol-2-yl)-1,2,6-thiadiazinane-3-carboxamide 1,1-dioxide]	1000 to 5000 nM
CN1[C@H](C(=O)Nc2ccc(F)c(Cl)c2)C[C@H](c2ncc(-c3ccc(NS(C)(=O)=O)cc3)s2)NS1(=O)=O [HBV-CSU-179-ISO-I, Cis-N-(3-Chloro-4-fluorophenyl)-2-methyl-5-(5-(4-(methylsulfonamido)phenyl)thiazol-2-yl)-1,2,6-thiadiazinane-3-carboxamide 1,1-dioxide]	< 1000 nM
CN1[C@@H](C(=O)Nc2ccc(F)c(Cl)c2)C[C@@H](c2ncc(-c3ccc(NS(C)(=O)=O)cc3)s2)NS1(=O)=O [HBV-CSU-179-ISO-II, Cis-N-(3-Chloro-4-fluorophenyl)-2-methyl-5-(5-(4-(methylsulfonamido)phenyl)thiazol-2-yl)-1,2,6-thiadiazinane-3-carboxamide 1,1-dioxide]	1000 to 5000 nM
COc1ccc(C2CC(C(=O)Nc3ccc(F)c(Cl)c3)N(C)S(=O)(=O)N2)cc1 (stereo not drawn) [HBV-CSU-200, Cis-N-(3-Chloro-4-fluorophenyl)-5-(4-methoxyphenyl)-2-methyl-1,2,6-thiadiazinane-3-carboxamide 1,1-dioxide]	< 1000 nM
CN1C(C(=O)Nc2ccc(F)c(Cl)c2)CC(c2ccc(O)cc2)NS1(=O)=O (stereo not drawn) [HBV-CSU-201, Cis-N-(3-Chloro-4-fluorophenyl)-5-(4-hydroxyphenyl)-2-methyl-1,2,6-thiadiazinane-3-carboxamide 1,1-dioxide]	< 1000 nM
CN1C(C(=O)Nc2ccc(F)c(Cl)c2)CC(c2ccc(Br)cc2)NS1(=O)=O (stereo not drawn) [HBV-CSU-202, Cis-5-(4-Bromophenyl)-N-(3-chloro-4-fluorophenyl)-2-methyl-1,2,6-thiadiazinane-3-carboxamide 1,1-dioxide]	< 1000 nM
COc1cccc(C2CC(C(=O)Nc3ccc(F)c(Cl)c3)N(C)S(=O)(=O)N2)c1 (stereo not drawn) [HBV-CSU-204, Cis-N-(3-Chloro-4-fluorophenyl)-5-(3-methoxyphenyl)-2-methyl-1,2,6-thiadiazinane-3-carboxamide 1,1-dioxide]	< 1000 nM
CN1C(C(=O)Nc2ccc(F)c(Cl)c2)CC(c2cccc(O)c2)NS1(=O)=O (stereo not drawn) [HBV-CSU-205, Cis-N-(3-chloro-4-fluorophenyl)-5-(3-hydroxyphenyl)-2-methyl-1,2,6-thiadiazinane-3-carboxamide 1,1-dioxide]	< 1000 nM
CN(C)CCCOc1ccc([C@@H]2C[C@H](C(=O)Nc3ccc(F)c(Cl)c3)N(C)S(=O)(=O)N2)cc1 [HBV-CSU-208-ISO-I, Cis-N-(3-chloro-4-fluorophenyl)-5-(4-(3-(dimethylamino)propoxy)phenyl)-2-methyl-1,2,6-thiadiazinane-3-carboxamide 1,1-dioxide]	> 5000 nM
CN(C)CCCOc1ccc([C@H]2C[C@@H](C(=O)Nc3ccc(F)c(Cl)c3)N(C)S(=O)(=O)N2)cc1 [HBV-CSU-208-ISO-II, Cis-N-(3-chloro-4-fluorophenyl)-5-(4-(3-(dimethylamino)propoxy)phenyl)-2-methyl-1,2,6-thiadiazinane-3-carboxamide 1,1-dioxide]	< 1000 nM

SMILES	EC50
CN(C)CCCOc1cccc(C2CC(C(=O)Nc3ccc(F)c(Cl)c3)N(C)S(=O)(=O)N2)c1 (stereo not drawn) [HBV-CSU-209, Cis-N-(3-Chloro-4-fluorophenyl)-5-(3-(3-(dimethylamino)propoxy)phenyl)-2-methyl-1,2,6-thiadiazinane-3-carboxamide 1,1-dioxide]	< 1000 nM
COCCN1[C@@H](C(=O)Nc2ccc(F)c(Cl)c2)C[C@@H](c2ccc(F)cc2)NS1(=O)=O [HBV-CSU-210-ISO-I, Cis-N-(3-Chloro-4-fluorophenyl)-5-(4-fluorophenyl)-2-(2-methoxyethyl)-1,2,6-thiadiazinane-3-carboxamide 1,1-dioxide]	> 5000 nM
COCCN1[C@H](C(=O)Nc2ccc(F)c(Cl)c2)C[C@H](c2ccc(F)cc2)NS1(=O)=O [HBV-CSU-210-ISO-II, Cis-N-(3-Chloro-4-fluorophenyl)-5-(4-fluorophenyl)-2-(2-methoxyethyl)-1,2,6-thiadiazinane-3-carboxamide 1,1-dioxide]	< 1000 nM
CN1[C@H](C(=O)Nc2ccc(F)c(Br)c2)C[C@H](c2ccc(F)cc2)NS1(=O)=O [HBV-CSU-211-ISO-I, Cis-N-(3-Bromo-4-fluorophenyl)-5-(4-fluorophenyl)-2-methyl-1,2,6-thiadiazinane-3-carboxamide 1,1-dioxide]	< 1000 nM
CN1[C@@H](C(=O)Nc2ccc(F)c(Br)c2)C[C@@H](c2ccc(F)cc2)NS1(=O)=O [HBV-CSU-211-ISO-II, Cis-N-(3-Bromo-4-fluorophenyl)-5-(4-fluorophenyl)-2-methyl-1,2,6-thiadiazinane-3-carboxamide 1,1-dioxide]	> 5000 nM
CN1[C@H](C(=O)Nc2cc(F)c(F)c(F)c2)C[C@H](c2ccc(F)cc2)NS1(=O)=O [HBV-CSU-212-ISO-I, Cis-5-(4-Fluorophenyl)-2-methyl-N-(3,4,5-trifluorophenyl)-1,2,6-thiadiazinane-3-carboxamide 1,1-dioxide]	< 1000 nM
CN1[C@@H](C(=O)Nc2cc(F)c(F)c(F)c2)C[C@@H](c2ccc(F)cc2)NS1(=O)=O [HBV-CSU-212-ISO-II, Cis-5-(4-Fluorophenyl)-2-methyl-N-(3,4,5-trifluorophenyl)-1,2,6-thiadiazinane-3-carboxamide 1,1-dioxide]	> 5000 nM
CN1[C@@H](C(=O)Nc2ccc(F)c(Cl)c2)C[C@@H](c2ccc(C(N)=O)cc2)NS1(=O)=O [HBV-CSU-214-ISO-I, Cis-5-(4-Carbamoylphenyl)-N-(3-chloro-4-fluorophenyl)-2-methyl-1,2,6-thiadiazinane-3-carboxamide 1,1-dioxide]	> 5000 nM
CN1[C@H](C(=O)Nc2ccc(F)c(Cl)c2)C[C@H](c2ccc(C(N)=O)cc2)NS1(=O)=O [HBV-CSU-214-ISO-II, Cis-5-(4-Carbamoylphenyl)-N-(3-chloro-4-fluorophenyl)-2-methyl-1,2,6-thiadiazinane-3-carboxamide 1,1-dioxide]	< 1000 nM
COc1ccccc1C1CC(C(=O)Nc2ccc(F)c(Cl)c2)N(C)S(=O)(=O)N1 (stereo not shown) [HBV-CSU-215]	1000 to 5000 nM
CN1[C@@H](C(=O)Nc2ccc(F)c(Cl)c2)C[C@@H](c2ccc(OCC(=O)O)cc2)NS1(=O)=O [HBV-CSU-216-ISO-II, Cis-2-(4-(5-((3-Chloro-4-fluorophenyl)carbamoyl)-6-methyl-1,1-dioxido-1,2,6-thiadiazinan-3-yl)phenoxy)acetic acid]	> 5000 nM
CN1[C@H](C(=O)Nc2ccc(F)c(Cl)c2)C[C@H](c2ccc(C(=O)O)cc2)NS1(=O)=O [HBV-CSU-218-ISO-I, Cis-4-(5-((3-Chloro-4-fluorophenyl)carbamoyl)-6-methyl-1,1-dioxido-1,2,6-thiadiazinan-3-yl)benzoic acid]	> 5000 nM
CN1[C@@H](C(=O)Nc2ccc(F)c(Cl)c2)C[C@@H](c2ccc(C(=O)O)cc2)NS1(=O)=O [HBV-CSU-218-ISO-II, Cis-4-(5-((3-Chloro-4-fluorophenyl)carbamoyl)-6-methyl-1,1-dioxido-1,2,6-thiadiazinan-3-yl)benzoic acid]	1000 to 5000 nM
CN1C(C(=O)Nc2ccc(F)c(Cl)c2)CC(c2ccc(O)c(Cl)c2)NS1(=O)=O (stereo not drawn) [HBV-CSU-220, Cis-N-(3-chloro-4-fluorophenyl)-5-(3-chloro-4-hydroxyphenyl)-2-methyl-1,2,6-thiadiazinane-3-carboxamide 1,1-dioxide]	< 1000 nM
CN1[C@H](C(=O)Nc2ccc(F)c(Cl)c2)C[C@H](C2CCCC2)NS1(=O)=O [HBV-CSU-222-ISO-I, Cis-N-(3-chloro-4-fluorophenyl)-5-cyclopentyl-2-methyl-1,2,6-thiadiazinane-3-carboxamide 1,1-dioxide]	< 1000 nM
